Assays:
PERK geneset = assay: RNAseq geneset analysis in HEK293T cells, PERK geneset; type: cell-based, human; conditions: 6 h
Procedure: Cells were lysed and total RNA collected using the RNeasy mini kit, according to manufacturer's instructions (Qiagen). Conventional RNA-seq was conducted via BGI Americas on the BGI Proprietary platform, providing single-end 50 bp reads at 20 million reads per sample. Alignment of sequencing data was done using DNAstar Lasergene SeqManPro to the GRCh37. p 13 human genome reference assembly, and assembly data were imported into ArrayStar 12.2 with QSeq (DNAStar Inc.) to quantify the gene expression levels and normalization to reads per kilobase per million (RPKM). Differential expression analysis and statistical significance calculations between different conditions was assessed using “DESeq” in R, compared to vehicle-treated cells, using a standard negative binomial fit of the RPKM data to generate Fold Change quantifications.
The purpose of this example was to define the ability of the compounds to selectively induce expression of IRE1/XBP1s target genes: for this purpose, RNAseq was performed on HEK293T cells that had been treated with compound No. 198, 474, or 970 for 6 h. As a control, RNAseq was performed on cells that had been treated with the global UPR activator Tg. […] These include the ER stress-responsive transcription factor XBP1 and the ER proteostasis factors SEC24D, […], and HERPUD1^8.
The next step defined the selectivity of the compounds for IRE1/XBP1s signaling relative to other arms of the UPR. […] To overcome this challenge, the expression of individual genes that are included in these genesets were normalized to the expression observed in Tg-treated cells (Tg representing 100% activation of these genes). It was therefore possible to directly compare gene expression without complications arising from differential expression^42.

XBP1 splicing = XBP1 splicing in wild-type and Ire1-deficient MEF cells; type: cell-based, mouse; conditions: for XBP1 splicing: Ire1-deficient MEF cells; for IRE1-dependent XBP1 splicing: wild-type MEF cells
Procedure: To amplify the spliced and unspliced XBP1 mRNA, XBP1 primers were used as described previously.^21 PCR products were electrophoresed on 2.5% agarose gel. GAPDH (forward 5′[…]3′, reverse 5′[…]3′) was used as a loading control. The size difference between the spliced and the unspliced XBP1 is 26 nucleotides.
Compounds 474, 198, and 970 were selected as exemplary hits based on their selective IRE1-depedendent induction of DNAJB9, their EC50 of XBP1-RLuc activation of <3 μM and their high maximal activation of IRE1signaling measured by both XBP1s-RLuc activity and DNAJB9 expression (>50% that observed with Tg). […] However, this splicing was not observed in Ire1-deficient MEF cells, further confirming that these compounds increase XBP1 splicing by an IRE1-dependent mechanism.

secreted Aβ = assay: Aβ ELISA of media conditioned on CHO 7PA2 cells (V717F APP); type: cell-based; conditions: CHO 7PA2, 10 μM
Procedure: FIGS. 5A-5D. […] Cells were treated for 18 hours, media was then replaced and conditioned in the presence of treatments for 24 hours before harvesting for ELISA assay. Error bars represent SEM for n=3 replicates. Statistics calculated from one-tailed Student's t-test. *p<0.05, **p<0.01, ***p<0.001 (FIG. 5A). Quantification of media and lysate immunoblots from 474 treatment (10 μM) of APP. Error bars represent Standard Deviation for n=3 replicates. Statistics calculated from one-tailed Student's t-test. *p<0.05, **p<0.01 ***p<0.001 (FIG. 5B). Plot showing fraction of total remaining APP at each time point after S35 metabolic labeling of newly synthesized protein, accounting for the sum of APP in lysate and media. Error bars represent Standard Deviation for n=3 replicates. Statistics calculated from one-tailed Student's t-test. *p<0.05, **p<0.01, ***p<0.001 (FIG. 5C). Plot showing fraction of secreted APP collected at 2 hours after metabolic labeling. Error bars represent Standard Deviation for n=3 replicates. Statistics calculated from one-tailed Student's t-test. *p<0.05, **p<0.01, ***p<0.001 (FIG. 5D).
7PA2 or 7WD10 cells were cultured on 96-well plates (Corning) and treated with IRE1 activating compounds +/−4 μ8c overnight. The medium was then replaced at 50% volume with treatment remaing, culture medium was collected after 24 hours. The medium was analyzed by an AP ELISA as follows. Monoclonal 6E10 anti-Aβ(residues 1-17) mouse IgG1, (Biolegend) was coated in […] carbonate buffer, pH 9.6, at 4° C. overnight on high binding assay black plates (Costar), washed with TBST (tris buffered saline with 0.05% Tween 20) and blocked with 5% non-fat milk in TBST. Samples and standards (condition 7PA2 media) were incubated for 1.5 hr, followed by addition of 4G8 antibody [anti-Aβ residues 17-24, mouse IgG2b (Biolegend)] conjugated to horseradish peroxidase (hrp) and incubated for 1.5 hr at 25° C. After washing, ABM substrate was added, followed by detection with an absorbance plate reader.
ELISA was used to monitor Aβ in media conditioned on a CHO cell line stably expressing the destabilized, disease-associated V717F APP mutant (CHO^7PA2)^45 treated with or without compounds 198, 474, and 970. […] The reduction in A secretion can be attributed to IRE1 activation because the reduced extracellular accumulation of Aβ is blocked by co-treatment with the active site IRE1 inhibitor 4 μ8c (FIG. 5A).

SMILES | expression of the PERK geneset (PERK geneset) | XBP1 splicing (XBP1 splicing) | IRE1-dependent XBP1 splicing (XBP1 splicing) | Aβ in conditioned media relative to control conditioned media (secreted Aβ) [%]
CCOC(CNC(=O)C1CCCN(Cc2nc(-c3ccc(Cl)cc3)oc2C)C1)OCC (stereo not drawn) [Compound 198] | increased expression of the PERK geneset | not observed | increased | 50
O=C(CN(Cc1ccc(Cl)cc1)S(=O)(=O)c1cccnc1)N1CCc2ccccc21 [Compound 970] | did not demonstrate this effect | not observed | increased | 50
Cc1ccc(OCCN(C)C(=O)Cn2cc(NC(=O)CCOc3ccccc3)cn2)cc1 [Compound 474] | did not demonstrate this effect | not observed | increased | 50
